Laboratory results from patent US9718835B2 (China Medical University Hospital, priority 2013, dated 2017).

Legend:
[1] = test system: A-549 cells; assay: Cell cycle analysis by flow cytometry; assay type: cell-based, human; settings: A-549, 24 h treatment
Text: First, we determined the effect of 9a on cell cycle distribution using flow cytometry analysis. […] Because it has been shown that 1-Topo I-DNA covalent complexes enhance the transcription-dependent degradation of Topo I via a 26S proteasome pathway,^32 the effects of 9a on the expression levels of Topo I and Topo II were investigated. […] Compound 9a acts directly on Topo I and results in the accumulation of covalent Topo I-DNA complexes followed by proteasomal Topo I degradation, which is the same effect as 1 and contributes to 9a's cytotoxicity.
A-549 cells were fixed with ice-cold 70% EtOH followed by propidium iodide staining Samples were analyzed by a flow cytometer for cell cycle determination. Population of each cell cycle phase was calculated based on the ploidy (<2N as sub-G1; 2N as G1; between 2N and 4N as S; 4N as G2/M), and evaluated statistically by Student's t-test (P<0.01).

[2] = test system: SKOV3 (Ovary cancer); assay: cells; assay type: cell-based, human; settings: Table 6; read-out: In vitro cytotoxicity SKOV3 (Ovary cancer)
[3] = test system: KBvin (vincristine-resistant KB subline); assay: Sulforhodamine B cytotoxicity assay, KBvin; assay type: cell-based, human; settings: Table 1; 72 h; average ± SD; read-out: IC50 KBvin
Text: The human tumor cell lines used in this manuscript were A-549 (lung carcinoma), MDA-MB-231 (triple-negative breast cancer), DU-145 (hormone-insensitive prostate cancer), KB (originally isolated from epidermoid carcinoma of the nasopharynx), KBvin (vincristine-resistant KB subline), and HCT116 (colorectal adenocarcinoma). These cell lines were obtained from the Lineberger Comprehensive Cancer Center (UNC-CH) or from ATCC (Manassas, Va.), except KBvin, which was a generous gift of Professor Y.-C. Cheng (Yale University). All cell lines were maintained and assayed in RPMI-1640 medium containing 2 mM L-glutamine and 25 mM HEPES (HyClone), supplemented with 10% heat-inactivated fetal bovine serum (HyClone), 100 μg/mL streptomycin, 100 IU/mL penicillin, and 0.25 μg/mL amphotericin B (Cellgro) in a humidified atmosphere containing 5% CO2 in air. […] The 4-6×10^3 cells/well were cultured for 72 h with various concentrations of test compounds in 96-well plate at 37° C. […] Each assay was performed in triplicate with duplicated samples.

[4] = biological target: T1, Topo I (Homo sapiens, UniProt P11387); assay: Topo I activity assay, nuclear extracts of treated A-549 cells, supercoiled DNA; assay type: cell-based; design: Nuclear extracts from 9a-treated A-549 cells were incubated with supercoiled DNA (for Topo I); endogenous in cells; host or cells: A-549
T1 sequence (P11387 1-765): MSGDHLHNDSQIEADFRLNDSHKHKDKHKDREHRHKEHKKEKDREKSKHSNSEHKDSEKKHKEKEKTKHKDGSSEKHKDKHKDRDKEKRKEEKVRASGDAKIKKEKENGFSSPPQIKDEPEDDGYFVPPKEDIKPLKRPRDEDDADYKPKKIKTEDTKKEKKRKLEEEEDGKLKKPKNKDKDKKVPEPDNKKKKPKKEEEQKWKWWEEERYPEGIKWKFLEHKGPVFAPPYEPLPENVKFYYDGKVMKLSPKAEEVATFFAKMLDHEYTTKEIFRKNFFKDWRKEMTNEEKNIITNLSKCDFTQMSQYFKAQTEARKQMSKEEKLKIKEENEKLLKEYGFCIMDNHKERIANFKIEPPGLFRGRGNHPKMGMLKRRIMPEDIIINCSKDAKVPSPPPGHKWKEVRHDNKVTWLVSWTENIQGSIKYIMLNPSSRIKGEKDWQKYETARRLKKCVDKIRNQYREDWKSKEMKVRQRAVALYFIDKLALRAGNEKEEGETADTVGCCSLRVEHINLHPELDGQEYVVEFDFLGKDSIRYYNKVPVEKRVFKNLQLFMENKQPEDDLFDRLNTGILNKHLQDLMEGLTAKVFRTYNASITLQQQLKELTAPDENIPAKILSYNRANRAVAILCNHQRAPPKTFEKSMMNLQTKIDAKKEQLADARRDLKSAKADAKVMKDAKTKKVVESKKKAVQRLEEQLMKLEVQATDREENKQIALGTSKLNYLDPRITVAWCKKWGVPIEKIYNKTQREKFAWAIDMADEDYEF
Protocol: First, we determined the effect of 9a on cell cycle distribution using flow cytometry analysis. […] Because it has been shown that 1-Topo I-DNA covalent complexes enhance the transcription-dependent degradation of Topo I via a 26S proteasome pathway,^32 the effects of 9a on the expression levels of Topo I and Topo II were investigated.
Topo I activity test was performed using an assay kit (TopoGEN) according to the manufacturer's instructions. Nuclear extracts from 9a-treated A-549 cells were incubated with supercoiled DNA (for Topo I) or catenated kDNA (for Topo II) for 30 min at 37° C. Reaction mixture was separated by is 1% agarose gel in 1×TAE buffer. The gel was stained with ethidium bromide and photographed using Gel Doc XR (Bio-Rad).

[5] = test system: MDA-MB-468 (Breast cancer); assay: cells; assay type: cell-based, human; settings: Table 6; read-out: In vitro cytotoxicity MDA-MB-468 (Breast cancer)
[6] = test system: HCT 116 (Colon cancer); assay: cells; assay type: cell-based, human; settings: Table 6; read-out: In vitro cytotoxicity HCT 116 (Colon cancer)
[7] = test system: DU-145 (hormone-insensitive prostate cancer); assay: Sulforhodamine B cytotoxicity assay, DU-145; assay type: cell-based, human; settings: Table 1; 72 h; average ± SD
Protocol: The 12 novel 1-derivatives 9a-l were evaluated for in vitro antiproliferative activity against four human tumor cell lines, KB (nasopharyngeal), A-549 (lung), DU-145 (prostate), and KBvin (MDR KB subline), by using a sulforhodamine B colorimetric assay with triplicate experiments.^30 Compounds 1 and 3 were used as controls.
The human tumor cell lines used in this manuscript were A-549 (lung carcinoma), MDA-MB-231 (triple-negative breast cancer), DU-145 (hormone-insensitive prostate cancer), KB (originally isolated from epidermoid carcinoma of the nasopharynx), KBvin (vincristine-resistant KB subline), and HCT116 (colorectal adenocarcinoma). These cell lines were obtained from the Lineberger Comprehensive Cancer Center (UNC-CH) or from ATCC (Manassas, Va.), except KBvin, which was a generous gift of Professor Y.-C. Cheng (Yale University). All cell lines were maintained and assayed in RPMI-1640 medium containing 2 mM L-glutamine and 25 mM HEPES (HyClone), supplemented with 10% heat-inactivated fetal bovine serum (HyClone), 100 μg/mL streptomycin, 100 IU/mL penicillin, and 0.25 μg/mL amphotericin B (Cellgro) in a humidified atmosphere containing 5% CO2 in air. Compound stock solutions were prepared at 10 mM in DMSO and diluted with culture medium with the final DMSO concentration ≦0.01% (v/v), a concentration without effect on cell growth. The 4-6×10^3 cells/well were cultured for 72 h with various concentrations of test compounds in 96-well plate at 37° C. […] Each assay was performed in triplicate with duplicated samples.

CC[C@@]1(OC(=O)CNC(Cc2ccc(OC)cc2)=NS(=O)(=O)c2ccc(C)cc2)C(=O)OCc2c1cc1n(c2=O)Cc2cc3ccccc3nc2-1 [Compound 9a]
cell cycle distribution [1]: increased cell populations in S and sub-G1 phases
IC50 [2]: 17.1 ± 2.27 nM
IC50 [3]: 26 nM
Topo I-mediated relaxation of supercoiled DNA [4]: inhibited the relaxation of supercoiled DNA
IC50 [5]: 22.8 ± 2.97 nM
IC50 [6]: 46.1 ± 1.74 nM
IC50 [7]: 50 ± 3.8 nM
